Source: US11046686B2, “Thiadiazole IRAK4 compounds” (Gilead Sciences, Inc., priority 2018, dated 2021)
Like-named read-outs stand apart in the source and are kept apart here.

Tests used:
TNFα = experiment: IRAK4 Monocyte TNFα Cell Based Assay; set-up: species or system human
Method in brief: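 TNFα release quantified by HTRF (cryptate/XL665 antibody pair, overnight at RT) after 1 h compound pre-incubation (0.1% DMSO) and 4 h LPS challenge at 50 pg/ml, 37 °C, 5,000 monocytes per well. Signal ratio normalised between unstimulated (0%) and stimulated (100%) controls.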

IRAK4 enzyme = IRAK4 enzyme (Homo sapiens (Human), UniProt Q9NWZ3); experiment: IRAK4 Biochemical Assay (TR-FRET, STK1 KinEASE)
Method in brief: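 TR-FRET endpoint (KinEASE STK1): phosphopeptide detected with cryptate antibody and tracer after EDTA quench, ratio 665/615 nm, normalized to no-inhibitor wells as % inhibition. Reaction: 0.75 nM IRAK4, […] peptide, 500 μM ATP, pH 7.0 HEPES, 120 min room temperature, after 15 min compound preincubation with enzyme.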

[1] = Homo sapiens, Monocyte, human monocytes, second part of Table 2, compounds 33-343, unit inferred, read-out: EC50 MONO TNF HTRF
[2] = human monocytes, second part of Table 2, compounds 33-343, unit inferred, read-out: EC50 MONO TNF HTRF
[3] = second part of Table 2, compounds 33-343, unit inferred, read-out: IC50 IRAK4-HTBS
[4] = Homo sapiens, Monocyte, human monocytes, LPS stimulated, compounds 1-32, read-out: EC50 TNF
[5] = compounds 1-32, read-out: IC50 HTRF
[6] = Homo sapiens, Monocyte, read-out: EC50 MONO TNF HTRF

Chain of IRAK4 enzyme (Q9NWZ3 whole entry): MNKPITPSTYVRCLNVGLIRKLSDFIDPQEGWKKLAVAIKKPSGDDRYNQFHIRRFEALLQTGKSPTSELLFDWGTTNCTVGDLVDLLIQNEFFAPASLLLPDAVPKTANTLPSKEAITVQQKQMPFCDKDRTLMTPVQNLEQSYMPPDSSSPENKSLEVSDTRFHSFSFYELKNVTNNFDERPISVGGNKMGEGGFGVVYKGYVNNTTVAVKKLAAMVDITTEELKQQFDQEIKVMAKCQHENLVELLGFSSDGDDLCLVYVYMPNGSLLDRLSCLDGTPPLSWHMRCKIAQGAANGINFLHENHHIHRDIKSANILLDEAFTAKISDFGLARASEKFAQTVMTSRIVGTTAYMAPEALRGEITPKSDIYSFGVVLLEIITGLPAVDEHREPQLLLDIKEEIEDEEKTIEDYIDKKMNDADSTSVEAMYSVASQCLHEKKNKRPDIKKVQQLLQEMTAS

Row | Molecule | EC50 (TNFα; [1]) | IC50 (IRAK4 enzyme) | further results
1 | CNc1cc(-c2ccc3cc(C#N)cnn23)ncc1-c1nnc(N2CC[C@@H](NC(C)=O)C(F)(F)C2)s1 [Example 306, (R)-N-(1-(5-(6-(3-cyanopyrrolo[1,2-b]pyridazin-7-yl)-4-(methylamino)pyridin-3-yl)-1,3,4-thiadiazol-2-yl)-3,3-difluoropiperidin-4-yl)acetamide] | 18.4 nM | 1.21 nM | –
2 | CC(C)Nc1cc(-c2ccc3cc(C#N)cnn23)ncc1-c1nnc(C(=O)N2CC[C@H](NC(=O)OC(C)(C)C)C2)s1 [Example 223, tert-butyl (S)-(1-(5-(6-(3-cyanopyrrolo[1,2-b]pyridazin-7-yl)-4-(isopropylamino)pyridin-3-yl)-1,3,4-thiadiazole-2-carbonyl)pyrrolidin-3-yl)carbamate] | 1360 nM | 1.43 nM | –
3 | CC(C)Nc1cc(-c2ccc3cc(C#N)cnn23)ncc1-c1nnc(N2CCNCC2)s1 [Example 130, 7-(4-(isopropylamino)-5-(5-(piperazin-1-yl)-1,3,4-thiadiazol-2-yl)pyridin-2-yl)pyrrolo[1,2-b]pyridazine-3-carbonitrile] | 18.7 nM | 0.64 nM | –
4 | CC(=O)N[C@@H]1[C@@H]2CC[C@H]1CN(c1nnc(-c3cnc(-c4ccc5cnc(N[C@@H]6CCCC[C@@H]6N)nn45)cc3N[C@H](C)C#N)s1)C2 [Example 61, N-((1R,5S,8S)-3-(5-(6-(2-(((1R,2S)-2-aminocyclohexyl)amino)pyrrolo[2,1-f][1,2,4]triazin-7-yl)-4-(((R)-1-cyanoethyl)amino)pyridin-3-yl)-1,3,4-thiadiazol-2-yl)-3-azabicyclo[3.2.1]octan-8-yl)acetamide] | 5.3 nM | 1.01 nM | –
5 | CC(=O)NC1CCC(F)(c2nnc(-c3cnc(-c4ccc5cc(C#N)cnn45)cc3NC(C)C)s2)CC1 (centres unmarked) [Example 194, N-(4-(5-(6-(3-cyanopyrrolo[1,2-b]pyridazin-7-yl)-4-(isopropylamino)pyridin-3-yl)-1,3,4-thiadiazol-2-yl)-4-fluorocyclohexyl)acetamide] | 64 nM | 0.75 nM | –
6 | CC1(O)CCN(c2nnc(-c3cnc(-c4ccc5cc(C#N)cnn45)cc3NC3CCOCC3)s2)CC1 [Example 188, 7-(5-(5-(4-hydroxy-4-methylpiperidin-1-yl)-1,3,4-thiadiazol-2-yl)-4-((tetrahydro-2H-pyran-4-yl)amino)pyridin-2-yl)pyrrolo[1,2-b]pyridazine-3-carbonitrile] | 7.6 nM | 1.07 nM | –
7 | CC(=O)N[C@@H]1CCN(C(=O)c2cnc(-c3cnc(-c4ccc5cc(C#N)cnn45)cc3NC(C)C)s2)C1 [Example 40, (R)-N-(1-(2-(6-(3-cyanopyrrolo[1,2-b]pyridazin-7-yl)-4-(isopropylamino)pyridin-3-yl)thiazole-5-carbonyl)pyrrolidin-3-yl)acetamide] | 87.6 nM | 3.09 nM | –
8 | CC(C)Nc1cc(-c2ccc3cc(C#N)cnn23)ncc1-c1nnc([C@H]2C[C@@H]2C(C)(C)O)s1 (single isomer, unassigned; isomer 2) [132 Isomer 2] | – | – | EC50 (TNFα; [2]): 15.2 nM; IC50 (IRAK4 enzyme; [3]): 1.3 nM
9 | CC(C)Nc1cc(-c2ccc3cc(C#N)cnn23)ncc1-c1nnc(N2CC[C@](C)(O)[C@H](F)C2)s1 [Example 192, 7-(5-(5-((3R,4S)-3-fluoro-4-hydroxy-4-methylpiperidin-1-yl)-1,3,4-thiadiazol-2-yl)-4-(isopropylamino)pyridin-2-yl)pyrrolo[1,2-b]pyridazine-3-carbonitrile] | 24.6 nM | 1.21 nM | –
10 | CC(C)Nc1cc(-c2ccc3cc(C#N)cnn23)ncc1-c1nncs1 [Example 30, 7-(4-(isopropylamino)-5-(1,3,4-thiadiazol-2-yl)pyridin-2-yl)pyrrolo[1,2-b]pyridazine-3-carbonitrile] | – | – | EC50 (TNFα; [4]): 78 nM; IC50 (IRAK4 enzyme; [5]): 1 nM
11 | CC(C)Nc1cc(-c2ccc3cc(C#N)cnn23)ncc1-c1nnc(CCN)s1 [Example 26, 7-(5-(5-(2-aminoethyl)-1,3,4-thiadiazol-2-yl)-4-(isopropylamino)pyridin-2-yl)pyrrolo[1,2-b]pyridazine-3-carbonitrile] | – | – | EC50 (TNFα; [4]): 305 nM; IC50 (IRAK4 enzyme; [5]): 1 nM
12 | CC(=O)N[C@@H]1CCN(c2nnc(-c3cnc(-c4ccc5cc(C#N)cnn45)cc3NC3COC3)s2)CC1(F)F [Example 183, (R)-N-(1-(5-(6-(3-cyanopyrrolo[1,2-b]pyridazin-7-yl)-4-(oxetan-3-ylamino)pyridin-3-yl)-1,3,4-thiadiazol-2-yl)-3,3-difluoropiperidin-4-yl)acetamide] | 8.8 nM | 0.5 nM | –
13 | CC(C)Nc1cc(-c2ccc3cc(C#N)cnn23)ncc1-c1nnc(CC(C)(C)O)s1 [Example 320, 7-(5-(5-(2-hydroxy-2-methylpropyl)-1,3,4-thiadiazol-2-yl)-4-(isopropylamino)pyridin-2-yl)pyrrolo[1,2-b]pyridazine-3-carbonitrile] | – | 1.18 nM | EC50 (TNFα; [6]): 68.3 nM
14 | CC(=O)N[C@H]1CC[C@H](c2nnc(-c3cnc(-c4ccc5cc(C#N)cnn45)cc3N[C@H]3CC[C@@H](O)CC3)s2)CC1 [Compound 244, N-((1R,4r)-4-(5-(6-(3-cyanopyrrolo[1,2-b]pyridazin-7-yl)-4-(((1s,4S)-4-hydroxycyclohexyl)amino)pyridin-3-yl)-1,3,4-thiadiazol-2-yl)cyclohexyl)acetamide] | – | – | EC50 (TNFα; [2]): 9.1 nM; IC50 (IRAK4 enzyme; [3]): 0.93 nM
15 | CC(=O)NC1CN(c2nnc(-c3cnc(-c4ccc5cc(C#N)cnn45)cc3NC(C)C)s2)C1 [Example 33, N-(1-(5-(6-(3-cyanopyrrolo[1,2-b]pyridazin-7-yl)-4-(isopropylamino)pyridin-3-yl)-1,3,4-thiadiazol-2-yl)azetidin-3-yl)acetamide] | 3970 nM | 0.49 nM | –
16 | N#Cc1cnn2c(-c3cc(NC4CCOCC4)c(-c4nnc(C56CCC(N)(CC5)CC6)s4)cn3)ccc2c1 [Example 336, 7-(5-(5-(4-aminobicyclo[2.2.2]octan-1-yl)-1,3,4-thiadiazol-2-yl)-4-((tetrahydro-2H-pyran-4-yl)amino)pyridin-2-yl)pyrrolo[1,2-b]pyridazine-3-carbonitrile] | – | 0.7 nM | EC50 (TNFα; [6]): 11 nM
17 | CC(C)Nc1cc(-c2ccc3cc(C#N)cnn23)ncc1-c1nnc(N2CCS(=O)(=O)CC2)s1 [Compound 257, 7-(5-(5-(1,1-dioxidothiomorpholino)-1,3,4-thiadiazol-2-yl)-4-(isopropylamino)pyridin-2-yl)pyrrolo[1,2-b]pyridazine-3-carbonitrile] | 10000 nM | 0.95 nM | –
18 | CNC(=O)C1CCN(c2nnc(-c3cnc(-c4ccc5cc(C#N)cnn45)cc3NC(C)C)s2)CC1 [Example 305, 1-(5-(6-(3-cyanopyrrolo[1,2-b]pyridazin-7-yl)-4-(isopropylamino)pyridin-3-yl)-1,3,4-thiadiazol-2-yl)-N-methylpiperidine-4-carboxamide] | 15.9 nM | 1.02 nM | –
19 | (S)-7-(5-(5-(2-(aminomethyl)pyrrolidine-1-carbonyl)-1,3,4-thiadiazol-2-yl)-4-(isopropylamino)pyridin-2-yl)pyrrolo[1,2-b]pyridazine-3-carbonitrile [Compound 242] | – | – | EC50 (TNFα; [2]): 752 nM; IC50 (IRAK4 enzyme; [3]): 2.76 nM
20 | CC(=O)NC12CCC(c3nnc(-c4cnc(-c5ccc6cc(C#N)cnn56)cc4NC(C)C)s3)(CC1)CC2 [Compound 280, N-(4-(5-(6-(3-cyanopyrrolo[1,2-b]pyridazin-7-yl)-4-(isopropylamino)pyridin-3-yl)-1,3,4-thiadiazol-2-yl)bicyclo[2.2.2]octan-1-yl)acetamide] | 7.4 nM | 1.03 nM | –
21 | CC(C)Nc1cc(-c2ccc3cc(C#N)cnn23)ncc1-c1nnc(C(=O)NCCCN2CCCCC2)s1 [Example 11, 5-(6-(3-cyanopyrrolo[1,2-b]pyridazin-7-yl)-4-(isopropylamino)pyridin-3-yl)-N-(3-(piperidin-1-yl)propyl)-1,3,4-thiadiazole-2-carboxamide] | – | – | EC50 (TNFα; [4]): 1170 nM; IC50 (IRAK4 enzyme; [5]): < 1 nM
22 | CC(=O)N[C@H]1CC[C@H](c2nnc(-c3cnc(-c4ccc5cc(C#N)cnn45)cc3NC3COC3)s2)CC1 [Example 21, N-((1r,4r)-4-(5-(6-(3-cyanopyrrolo[1,2-b]pyridazin-7-yl)-4-(oxetan-3-ylamino)pyridin-3-yl)-1,3,4-thiadiazol-2-yl)cyclohexyl)acetamide] | – | – | EC50 (TNFα; [4]): 10 nM; IC50 (IRAK4 enzyme; [5]): < 1 nM
23 | CC(C)Nc1cc(-c2ccc3cc(C#N)cnn23)ncc1-c1nnc(NCC(C)(C)O)s1 [Example 37, 7-(5-(5-((2-hydroxy-2-methylpropyl)amino)-1,3,4-thiadiazol-2-yl)-4-(isopropylamino)pyridin-2-yl)pyrrolo[1,2-b]pyridazine-3-carbonitrile] | 10000 nM | 1000 nM | –
24 | CC(C)Nc1cc(-c2ccc3cc(C#N)cnn23)ncc1-c1nnc(C(=O)N2CC[C@@H](NC(=O)OC(C)(C)C)C2)s1 [Example 222, tert-butyl (R)-(1-(5-(6-(3-cyanopyrrolo[1,2-b]pyridazin-7-yl)-4-(isopropylamino)pyridin-3-yl)-1,3,4-thiadiazole-2-carbonyl)pyrrolidin-3-yl)carbamate] | 1780 nM | 1.79 nM | –
25 | CC(=O)N[C@H]1CCN(C(=O)c2nnc(-c3cnc(-c4ccc5cc(C#N)cnn45)cc3NC(C)C)s2)C1 [Example 12, (S)-N-(1-(5-(6-(3-cyanopyrrolo[1,2-b]pyridazin-7-yl)-4-(isopropylamino)pyridin-3-yl)-1,3,4-thiadiazole-2-carbonyl)pyrrolidin-3-yl)acetamide] | – | – | EC50 (TNFα; [4]): 9 nM; IC50 (IRAK4 enzyme; [5]): < 1 nM
